Bridge positions count the residues as written; N and C are the ends. Square brackets hold non-standard residues; d marks the D form. Peptide text beside a SMILES is read from it. * marks the point of attachment. Octanoyl = CCCCCCCC(=O)*; Dab = NCC[C@H](N)C(=O)O; Abu = CC[C@H](N)C(=O)O

Data set [1] has as its system Escherichia coli. The experiment in a line: Antimicrobial activity against Escherichia coli IH3080 assessed as zone of inhibition at 10 ug after 18 hrs by disk diffusion method. It is filed as functional. A general note: In agar diffusion tests the substance spreads into inoculated agar from a disc or well.
For data set [2], the system named is Escherichia coli. The experiment in a line: Antimicrobial activity against Escherichia coli IH3080 assessed as zone of inhibition at 10 ug after 18 hrs by disk diffusion method in presence of 1 ug/ml rifampin. It is filed as functional.
Data set [3] deals with Acinetobacter baumannii. Briefly: Antimicrobial activity against Acinetobacter baumannii ATCC 19606 assessed as zone of inhibition at 10 ug after 18 hrs by disk diffusion method. It is filed as functional.
Data set [4] relates to Acinetobacter baumannii. The experiment in a line: Antimicrobial activity against Acinetobacter baumannii ATCC 19606 assessed as zone of inhibition at 10 ug after 18 hrs by disk diffusion method in presence of 1 ug/ml rifampin. It is filed as functional.
Data set [5] has as its system Pseudomonas aeruginosa. The experiment in a line: Antimicrobial activity against Pseudomonas aeruginosa ATCC 27853 assessed as zone of inhibition at 10 ug after 18 hrs by disk diffusion method. It is filed as functional.
The subject of data set [6] is Pseudomonas aeruginosa. Briefly: Antimicrobial activity against Pseudomonas aeruginosa ATCC 27853 assessed as zone of inhibition at 10 ug after 18 hrs by disk diffusion method in presence of 1 ug/ml rifampin. It is filed as functional.
The nature of data set [7]: Drug level in Sprague-Dawley rat urine at 1 mg/kg, iv. It is filed as ADME, organism-based. Also noted: dose 1 mg/kg, route intravenous. The following applies: Sprague-Dawley, urine, read-out: Drug uptake.
For data set [8], the system named is Escherichia coli. Briefly: Antimicrobial activity against Escherichia coli ATCC 25922 by Etest method in presence of 4 ug/ml NAB741. It is filed as functional.
The subject of data set [9] is Escherichia coli. Briefly: Antimicrobial activity against Escherichia coli IH3080 by Etest method in presence of 4 ug/ml NAB741. It is filed as functional.
Data set [10] relates to Klebsiella pneumoniae. The experiment in a line: Antimicrobial activity against Klebsiella pneumoniae ATCC 13883 by Etest method in presence of 4 ug/ml NAB741. It is filed as functional.
For data set [11], the system named is Enterobacter cloacae. The experiment in a line: Antimicrobial activity against Enterobacter cloacae ATCC 23355 by Etest method in presence of 4 ug/ml NAB741. It is filed as functional.
Data set [12] concerns Acinetobacter baumannii. The experiment in a line: Antimicrobial activity against Acinetobacter baumannii ATCC 19606 by Etest method in presence of 4 ug/ml NAB741. It is filed as functional.
Data set [13] concerns Escherichia coli. The experiment in a line: Ratio of MIC for Escherichia coli ATCC 25922 to MIC for Escherichia coli ATCC 25922 in presence of 4 ug/ml of NAB741. It is filed as functional.
In data set [14] the test system is Escherichia coli. The experiment in a line: Ratio of MIC for Escherichia coli IH3080 to MIC for Escherichia coli IH3080 in presence of 4 ug/ml of NAB741. It is filed as functional.
Data set [15] has as its system Klebsiella pneumoniae. Briefly: Ratio of MIC for Klebsiella pneumoniae ATCC 13883 to MIC for Klebsiella pneumoniae ATCC 13883 in presence of 4 ug/ml of NAB741. It is filed as functional.
Data set [16] concerns Enterobacter cloacae. The experiment in a line: Ratio of MIC for Enterobacter cloacae ATCC 23355 to MIC for Enterobacter cloacae ATCC 23355 in presence of 4 ug/ml of NAB741. It is filed as functional.
In data set [17] the test system is Acinetobacter baumannii. The experiment in a line: Ratio of MIC for Acinetobacter baumannii ATCC 19606 to MIC for Acinetobacter baumannii ATCC 19606 in presence of 4 ug/ml of NAB741. It is filed as functional.

Turning to `CN[C@H](C(=O)N[C@H](CO)C(=O)N[C@H]1CCNC(=O)[C@H]([C@@H](C)O)NC(=O)[C@H](CCN)NC(=O)[C@H](CCN)NC(=O)[C@H](CC(C)C)NC(=O)[C@@H](Cc2ccccc2)NC(=O)[C@H](CCN)NC1=O)[C@@H](C)O`, the “inhibition zone (IZ)” value amounted to 3 mm2 in the data set with Escherichia coli [1]; 130 mm2 in the data set on Escherichia coli [2]; 3 mm2 in the data set on Acinetobacter baumannii [3]; 79 mm2 with Acinetobacter baumannii [4]; 7 mm2 with Pseudomonas aeruginosa [5]; 38 mm2 with Pseudomonas aeruginosa [6].

For `CC(=O)N[C@H](C(=O)NCCCC(=O)N[C@H]1CCNC(=O)[C@H]([C@@H](C)O)NC(=O)[C@H](CCN)NC(=O)[C@H](CCN)NC(=O)[C@H](CC(C)C)NC(=O)[C@@H](Cc2ccccc2)NC(=O)[C@H](CCN)NC1=O)[C@@H](C)O`, the “inhibition zone (IZ)” value with Escherichia coli [1] is recorded as 3 mm2; with Escherichia coli [2], 8 mm2; in the data set with Acinetobacter baumannii [3], 3 mm2; with Acinetobacter baumannii [4] it was 9 mm2; in the data set on Pseudomonas aeruginosa [5], 3 mm2; in the data set on Pseudomonas aeruginosa [6] it was 3 mm2.

On to `CC(=O)N[C@H](C(=O)N[C@H](CC(N)=O)C(=O)N[C@H]1CCNC(=O)[C@H]([C@@H](C)O)NC(=O)[C@H](CCN)NC(=O)[C@H](CCN)NC(=O)[C@H](CC(C)C)NC(=O)[C@@H](Cc2ccccc2)NC(=O)[C@H](CCN)NC1=O)[C@@H](C)O`, for which the “inhibition zone (IZ)” value in the data set on Escherichia coli [1] is 3 mm2; in the data set on Escherichia coli [2], 110 mm2; in the data set with Acinetobacter baumannii [3], 3 mm2; in the data set on Acinetobacter baumannii [4], 154 mm2; in the data set on Pseudomonas aeruginosa [5], 3 mm2; with Pseudomonas aeruginosa [6], 3 mm2.

As for `CCCCCCCC(=O)N[C@H](C(=O)N[C@@H](CC)C(=O)N[C@H]1CCNC(=O)[C@H]([C@@H](C)O)NC(=O)[C@H](CCN)NC(=O)[C@H](CCN)NC(=O)[C@H](CC(C)C)NC(=O)[C@@H](Cc2ccccc2)NC(=O)[C@H](CCN)NC1=O)[C@@H](C)O` (Octanoyl-T[Abu][Dab][Dab][dF]L[Dab][Dab]T; lactam 3-C) [listing 1 of 2 here], the dose excreted in data set [7] was 7.16%.

`CCCCCCCC(=O)N[C@H](C(=O)N[C@@H](CC)C(=O)N[C@H]1CCNC(=O)[C@H]([C@@H](C)O)NC(=O)[C@H](CCN)NC(=O)[C@H](CCN)NC(=O)[C@H](CC(C)C)NC(=O)[C@@H](Cc2ccccc2)NC(=O)[C@H](CCN)NC1=O)[C@@H](C)O` (Octanoyl-T[Abu][Dab][Dab][dF]L[Dab][Dab]T; lactam 3-C) [listing 2 of 2 here]: the “inhibition zone (IZ)” value in the data set with Escherichia coli [1] is on record as 32 mm2; with Escherichia coli [2], 206 mm2; in the data set on Acinetobacter baumannii [3] it was 3 mm2; with Acinetobacter baumannii [4], 252 mm2; with Pseudomonas aeruginosa [5] it was 2 mm2; with Pseudomonas aeruginosa [6], 55 mm2.

Regarding `CCCCCCCC(=O)N[C@H](C(=O)N[C@H](CO)C(=O)N[C@H]1CCNC(=O)[C@H]([C@@H](C)O)NC(=O)[C@H](CCN)NC(=O)[C@H](CCN)NC(=O)[C@H](CC(C)C)NC(=O)[C@@H](Cc2ccccc2)NC(=O)[C@H](CCN)NC1=O)[C@@H](C)O` (Octanoyl-T[dS][Dab][Dab][dF]L[Dab][Dab]T; lactam 3-C) [listing 1 of 2 here], the dose excreted in data set [7] was found to be 19.4%.

As to `CCCCCCCC(=O)N[C@H](C(=O)N[C@H](CO)C(=O)N[C@H]1CCNC(=O)[C@H]([C@@H](C)O)NC(=O)[C@H](CCN)NC(=O)[C@H](CCN)NC(=O)[C@H](CC(C)C)NC(=O)[C@@H](Cc2ccccc2)NC(=O)[C@H](CCN)NC1=O)[C@@H](C)O` (Octanoyl-T[dS][Dab][Dab][dF]L[Dab][Dab]T; lactam 3-C) [listing 2 of 2 here], the “inhibition zone (IZ)” value in the data set on Escherichia coli [1] is on record as 170 mm2; in the data set on Escherichia coli [2] it was 212 mm2; in the data set on Acinetobacter baumannii [3] it was 161 mm2; in the data set with Acinetobacter baumannii [4], 395 mm2; in the data set on Pseudomonas aeruginosa [5], 81 mm2; in the data set with Pseudomonas aeruginosa [6], 87 mm2.

The MIC is the least concentration at which growth counts as inhibited. Regarding `CC[C@H]1OC(=O)[C@H](C)[C@@H](O[C@H]2C[C@@](C)(OC)[C@@H](O)[C@H](C)O2)[C@H](C)[C@@H](O[C@@H]2O[C@H](C)C[C@H](N(C)C)[C@H]2O)[C@](C)(O)C[C@@H](C)CN(C)[C@H](C)[C@@H](O)[C@]1(C)O` [AZITHROMYCIN], the minimal inhibitory concentration (MIC) in the data set with Escherichia coli [8] turned out to be 0.125 µg/mL; with Escherichia coli [9] it was 0.094 µg/mL; with Klebsiella pneumoniae [10], 0.125 µg/mL; in the data set on Enterobacter cloacae [11], 0.25 µg/mL; in the data set on Acinetobacter baumannii [12], 1.5 µg/mL. For the same compound, the Ratio in the data set on Escherichia coli [13] is listed as 16; in the data set with Escherichia coli [14], 8; with Klebsiella pneumoniae [15] it was 11; with Enterobacter cloacae [16], 16; in the data set on Acinetobacter baumannii [17], 21.

Take `CC(=O)O[C@H]1C[C@@]2(C)[C@@H](C[C@@H](O)[C@H]3[C@@]4(C)CC[C@@H](O)[C@@H](C)[C@@H]4CC[C@@]32C)/C1=C(\CCC=C(C)C)C(=O)O` [FUSIDIC ACID]: the MIC was found to be 1.5 µg/mL in the data set with Escherichia coli [8]; 2 µg/mL in the data set with Escherichia coli [9]; 48 µg/mL with Klebsiella pneumoniae [10]; 2 µg/mL in the data set with Enterobacter cloacae [11]; 6 µg/mL in the data set with Acinetobacter baumannii [12]. Moreover, the Ratio in the data set with Escherichia coli [13] was greater than 170; in the data set on Escherichia coli [14], greater than 130; with Klebsiella pneumoniae [15], greater than 5; with Enterobacter cloacae [16], greater than 130; in the data set with Acinetobacter baumannii [17] it was greater than 43.

For the compound `C/C(=C\C(=O)OCCCCCCCCC(=O)O)C[C@@H]1OC[C@H](C[C@@H]2O[C@H]2[C@@H](C)[C@H](C)O)[C@@H](O)[C@H]1O` [MUPIROCIN], the MIC in the data set with Escherichia coli [8] was found to be 0.75 µg/mL; in the data set with Escherichia coli [9] it was 1 µg/mL; in the data set on Klebsiella pneumoniae [10] it was 6 µg/mL; in the data set on Enterobacter cloacae [11], 0.25 µg/mL; in the data set with Acinetobacter baumannii [12], 512 µg/mL. Besides, the Ratio with Escherichia coli [13] is given as 64; with Escherichia coli [14], 24; in the data set on Klebsiella pneumoniae [15] it was 8; with Enterobacter cloacae [16] it was 50; with Acinetobacter baumannii [17] it was less than 2.

On to `CC(C)C[C@@H]1NC(=O)[C@@H](Cc2ccccc2)NC(=O)[C@H](CCN)NC(=O)[C@@H](NC(=O)[C@H](CCN)NC(=O)[C@@H](N)[C@@H](C)O)CCNC(=O)[C@H]([C@@H](C)O)NC(=O)[C@H](CCN)NC(=O)[C@H](CCN)NC1=O` [POLYMYXIN B NONAPEPTIDE] (H-T[Dab][Dab][Dab][dF]L[Dab][Dab]T; lactam 3-C), for which the “inhibition zone (IZ)” value in the data set on Escherichia coli [1] was 3 mm2; in the data set on Escherichia coli [2], 143 mm2; in the data set on Acinetobacter baumannii [3], 3 mm2; in the data set with Acinetobacter baumannii [4] it was 155 mm2; in the data set with Pseudomonas aeruginosa [5], 144 mm2; in the data set on Pseudomonas aeruginosa [6] it was 169 mm2.

Take `CN[C@H](CC(C)C)C(=O)N[C@H]1C(=O)N[C@@H](CC(N)=O)C(=O)N[C@H]2C(=O)N[C@H]3C(=O)N[C@H](C(=O)N[C@H](C(=O)O)c4cc(O)cc(O)c4-c4cc3ccc4O)[C@H](O)c3ccc(c(Cl)c3)Oc3cc2cc(c3O[C@@H]2O[C@H](CO)[C@@H](O)[C@H](O)[C@H]2O[C@H]2C[C@](C)(N)[C@H](O)[C@H](C)O2)Oc2ccc(cc2Cl)[C@H]1O` [VANCOMYCIN]: the MIC was 8 µg/mL in the data set with Escherichia coli [8]; 16 µg/mL in the data set on Escherichia coli [9]; 128 µg/mL with Klebsiella pneumoniae [10]; 1.5 µg/mL with Enterobacter cloacae [11]; 24 µg/mL with Acinetobacter baumannii [12]. Besides, the Ratio with Escherichia coli [13] was greater than 32; in the data set with Escherichia coli [14], greater than 16; in the data set with Klebsiella pneumoniae [15] it was greater than 2; with Enterobacter cloacae [16] it was greater than 170; in the data set on Acinetobacter baumannii [17], greater than 11.

On to POLYMYXIN B, for which the inhibition zone (IZ) in the data set on Escherichia coli [1] turned out to be 129 mm2; with Escherichia coli [2] it was 133 mm2; with Acinetobacter baumannii [3], 185 mm2; in the data set on Acinetobacter baumannii [4], 202 mm2; in the data set with Pseudomonas aeruginosa [5], 151 mm2; in the data set on Pseudomonas aeruginosa [6], 166 mm2.

These data come from ChEMBL document CHEMBL1629695, “A novel polymyxin derivative that lacks the fatty acid tail and carries only three positive charges has strong synergism with agents excluded by the intact outer membrane” (Antimicrob Agents Chemother, 2010).
